This note sets out measurements from patent publication US11117903B2, “Pyridine derivatives” (Hoffmann-La Roche Inc., priority 2017, dated 2021).

This experiment has as its target T1, human CB2 receptors (Homo sapiens, UniProt P34972).
T1 construct: expressed in transfected cells; host or cells: CHO cells
Briefly: cAMP assay human CB2. The class given is cell-based. The note with it: for Percent relative efficacy compared to the reference agonist CP55940 for which this value is set to +100%: negative values = inverse agonists, CP55940 = +100%. Here is the method:
The growth medium was exchanged with Krebs Ringer Bicarbonate buffer with 1 mM IBMX and incubated at 30° C. for 30 min. Compounds were added to a final assay volume of 100 μl and incubated for 30 min at 30° C. […] The time-resolved energy transfer is measured by a TRF reader (Evotec Technologies GmbH), equipped with a ND:YAG laser as excitation source. The plate is measured twice with the excitation at 355 nm and at the emission with a delay of 100 ns and a gate of 100 ns, total exposure time 10s at 730 (bandwidth 30 nm) or 645 nm (bandwidth 75 nm), respectively.
EC50 values were determined using Activity Base analysis (ID Business Solution, Limited).
For orientation: Changes in cAMP serve as a functional read-out for many G protein-coupled receptors.

Where [1] appears, read: CHO cells expressing human CB2 receptors, read-out: cAMP assay human CB2 EC50.

SMILES strings stand for the structures. Where two headings read alike, the source gives them in different places.

T1 sequence (P34972 whole entry): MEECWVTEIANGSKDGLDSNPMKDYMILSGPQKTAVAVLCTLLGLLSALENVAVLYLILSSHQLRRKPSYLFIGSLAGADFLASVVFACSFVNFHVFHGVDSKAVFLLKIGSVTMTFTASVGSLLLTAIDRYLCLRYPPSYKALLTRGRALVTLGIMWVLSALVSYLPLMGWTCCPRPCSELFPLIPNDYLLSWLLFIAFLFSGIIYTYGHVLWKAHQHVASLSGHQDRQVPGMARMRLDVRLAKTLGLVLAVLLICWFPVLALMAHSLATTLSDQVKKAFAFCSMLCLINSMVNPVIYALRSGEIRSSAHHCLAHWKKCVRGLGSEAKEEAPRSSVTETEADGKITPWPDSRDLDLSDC

On to `CC(C)C[C@@H](CO)NC(=O)c1cc(-c2ccc(Cl)cc2Cl)c(OCC2CC2)cn1` [Example 1, 5-(Cyclopropylmethoxy)-4-(2,4-dichlorophenyl)-N-[(2S)-1-hydroxy-4-methylpentan-2-yl]pyridine-2-carboxamide], for which the concentration for a half-maximal effect (EC50) – broadly, the concentration at which the effect is half-maximal – was found to be 0.0152 µM and the “Percent relative efficacy compared to the reference agonist CP55940 for which this value is set to +100%” value (“Percent relative efficacy … to +100%” for short) is listed as −40.1%.
On to `O=C(N[C@H]1CCCC[C@H]1O)c1cc(-c2ccc(Cl)cc2)c(OCC2CC2)cn1` [Example 3, 4-(4-Chlorophenyl)-5-(cyclopropylmethoxy)-N-[(1 S,2R)-2-hydroxycyclohexyl]pyridine-2-carboxamide], for which the EC50 came to 0.0466 µM and the “Percent relative efficacy … to +100%” value is −85.1%.
With `CCC(CC)(NC(=O)c1cc(-c2ccc(Cl)cc2)c(OCC2CC2)cn1)C(=O)OC` [Example 4, Methyl 2-[[4-(4-chlorophenyl)-5-(cyclopropylmethoxy)pyridine-2-carbonyl]amino]-2-ethylbutanoate], the EC50 was 0.0144 µM and the “Percent relative efficacy … to +100%” value is on record as −70.5%.
As to `CO[C@H]1CCCC[C@H]1NC(=O)c1cc(-c2ccc(Cl)cc2)c(OCC2CC2)cn1` [Example 6, 4-(4-chlorophenyl)-5-(cyclopropylmethoxy)-N-[(1R,2S)-2-methoxycyclohexyl]pyridine-2-carboxamide], the EC50 came to 0.124 µM and the “Percent relative efficacy … to +100%” value is reported as −102.9%.
`CNC(=O)[C@H](CC(C)C)NC(=O)c1cc(OCC2CC2)c(Cl)cn1` [Example 11, 5-Chloro-4-(cyclopropylmethoxy)-N-[(2S)-4-methyl-1-(methylamino)-1-oxopentan-2-yl]pyridine-2-carboxamide]: the concentration giving a half-maximal response (EC50) came out at 0.181 µM and the “Percent relative efficacy … to +100%” value was −28.5%.
In the case of `CC(C)(C)c1nc(-c2cc(OCC3CC3)c(N3CC4(COC4)C3)cn2)no1` [Example 14, 6-[6-(5-tert-Butyl-1,2,4-oxadiazol-3-yl)-4-(cyclopropylmethoxy)pyridin-3-yl]-2-oxa-6-azaspiro[3.3]heptane], the EC50 was 0.0367 µM and the “Percent relative efficacy … to +100%” value is given as −65.9%.
With `Cc1nnc(C(C)(NC(=O)c2cc(OCC(F)(F)F)c(C3CC3)cn2)C2CNC2)o1` (stereo not shown) [Example 18, N-[1-(azetidin-3-yl)-1-(5-methyl-1,3,4-oxadiazol-2-yl)ethyl]-5-cyclopropyl-4-(2,2,2-trifluoroethoxy)pyridine-2-carboxamide], the “Percent relative efficacy … to +100%” value is reported as −48.7%. Moreover, the concentration giving a half-maximal response (EC50) under setting [1] was 7.21 µM.
Regarding `O=C(N[C@@H]1CCCC[C@@H]1O)c1cc(-c2ccc(Cl)cc2)c(OCC2CC2)cn1` [Example 2, 4-(4-Chlorophenyl)-5-(cyclopropylmethoxy)-N-[(1R,2S)-2-hydroxycyclohexyl]pyridine-2-carboxamide], the EC50 worked out at 0.257 µM and the “Percent relative efficacy … to +100%” value was −90.6%.
Take `Cc1nc(C(C)(CC2CC2)NC(=O)c2cc(OCC3(C)CC3(F)F)c(Cl)cn2)no1` (stereo not shown) [Example 20, 5-Chloro-N-[1-cyclopropyl-2-(5-methyl-1,2,4-oxadiazol-3-yl)propan-2-yl]-4-[(2,2-difluoro-1-methylcyclopropyl)methoxy]pyridine-2-carboxamide]: the EC50 was 0.42 µM and the “Percent relative efficacy … to +100%” value is on record as −150.8%.
In the case of `Cc1nc(C(C)(CC2CC2)NC(=O)c2cc(On3nnc4ccccc43)c(C(F)(F)F)cn2)no1` (stereo not shown) [Example 21, 4-(Benzotriazol-1-yloxy)-N-[1-cyclopropyl-2-(5-methyl-1,2,4-oxadiazol-3-yl)propan-2-yl]-5-(trifluoromethyl)pyridine-2-carboxamide], a half-maximal response (EC50) required 0.087 µM and the “Percent relative efficacy … to +100%” value is on record as −147.5%.
As for `O=C(N[C@@H](c1ccccn1)C(F)(F)F)c1cc(OCC2CC2)c(Cl)cn1` [Example 9, (−) 5-Chloro-4-(cyclopropylmethoxy)-N-[2,2,2-trifluoro-1-pyridin-2-ylethyl]pyridine-2-carboxamide], it took 0.296 µM to reach a half-maximal effect (EC50) and the “Percent relative efficacy … to +100%” value is recorded as −114.7%.
As to `CNC(=O)[C@@H](NC(=O)c1cc(OCC2(C)COC2)c(C2CC2)cn1)C(C)(C)C` [Example 13, 5-Cyclopropyl-N-[(2S)-3,3-dimethyl-1-(methylamino)-1-oxobutan-2-yl]-4-[(3-methyloxetan-3-yl)methoxy]pyridine-2-carboxamide], the “Percent relative efficacy … to +100%” value was −158.8%. Under setting [1], the EC50 amounted to 0.0261 µM.
On to `CNC(=O)[C@@H](CC(C)C)NC(=O)c1cc(OCC2CC2)c(Cl)cn1` [Example 12, 5-Chloro-4-(cyclopropylmethoxy)-N-[(2R)-4-methyl-1-(methylamino)-1-oxopentan-2-yl]pyridine-2-carboxamide], for which a half-maximal effect (EC50) was put at 3.23 µM and the “Percent relative efficacy … to +100%” value is recorded as −40.1%.
On to `CC(C)(C)c1nc(-c2cc(OCc3cccc(S(C)(=O)=O)c3)c(C3CC3)cn2)no1` [Example 17, 5-tert-Butyl-3-[5-cyclopropyl-4-[(3-methylsulfonylphenyl)methoxy]pyridin-2-yl]-1,2,4-oxadiazole], for which the “Percent relative efficacy … to +100%” value was −49.9%. The EC50 under setting [1] stood at 2.01 µM.
As to `CC(CC(N)=O)(NC(=O)c1cc(OCc2ccc(F)cn2)c(C2CC2)cn1)C1CC1` (stereo not shown) [Example 22, N-(4-Amino-2-cyclopropyl-4-oxobutan-2-yl)-5-cyclopropyl-4-[(5-fluoropyridin-2-yl)methoxy]pyridine-2-carboxamide], the EC50 came to 0.0471 µM and the “Percent relative efficacy … to +100%” value is on record as −78.4%.
As for `O=C(N[C@@H](CO)c1ccccc1)c1cc(OCC2CC2)c(Cl)cn1` [Example 7, 5-Chloro-4-(cyclopropylmethoxy)-N-[(1R)-2-hydroxy-1-phenylethyl]pyridine-2-carboxamide], the EC50 came out at 0.497 µM and the “Percent relative efficacy … to +100%” value is recorded as −41.7%.
Consider `CNC(=O)[C@@H](NC(=O)c1cc(OCC2CC2)c(Cl)cn1)C(C)(C)C` [Example 8, 5-Chloro-4-(cyclopropylmethoxy)-N-[(2S)-3,3-dimethyl-1-(methylamino)-1-oxobutan-2-yl]pyridine-2-carboxamide], for which the concentration for a half-maximal effect (EC50) was found to be 0.0044 µM and the “Percent relative efficacy … to +100%” value was −141.9%.
As for `CC(C)(C)OC(=O)N1CC[C@@H](Oc2cc(-c3noc(C(C)(C)C)n3)ncc2C2CC2)C1` [Example 16, tert-Butyl (3R)-3-[2-(5-tert-butyl-1,2,4-oxadiazol-3-yl)-5-cyclopropylpyridin-4-yl]oxypyrrolidine-1-carboxylate], a half-maximal response (EC50) required 0.315 µM and the “Percent relative efficacy … to +100%” value was −103.1%.
For the compound `Cc1nc([C@](C)(CC2CC2)NC(=O)c2cc(-c3ccc(F)nc3)c(OCc3ccccc3)cn2)no1` [Example 23, N-[(2S)-1-Cyclopropyl-2-(5-methyl-1,2,4-oxadiazol-3-yl)propan-2-yl]-4-(6-fluoropyridin-3-yl)-5-phenylmethoxypyridine-2-carboxamide], the concentration for a half-maximal effect (EC50) was 1.03 µM and the “Percent relative efficacy … to +100%” value is given as −87.7%.
Consider `CCC(CC)(NC(=O)c1cc(-c2ccc(Cl)c(Cl)c2)c(OCC2CC2)cn1)C(=O)OC` [Example 5, Methyl 2-[[5-(cyclopropylmethoxy)-4-(3,4-dichlorophenyl)pyridine-2-carbonyl]amino]-2-ethylbutanoate], for which a half-maximal effect (EC50) was put at 0.0069 µM and the “Percent relative efficacy … to +100%” value was −128.6%.
`CC(C)(C)OC(=O)N1CCC[C@H]1COc1cc(-c2noc(C(C)(C)C)n2)ncc1C1CC1` [Example 15, tert-Butyl (2S)-2-[[2-(5-tert-butyl-1,2,4-oxadiazol-3-yl)-5-cyclopropylpyridin-4-yl]oxymethyl]pyrrolidine-1-carboxylate]: the EC50 came to 1.51 µM and the “Percent relative efficacy … to +100%” value is −75.2%.
With `O=C(N[C@H](c1cccnc1)C(F)(F)F)c1cc(OCC2CC2)c(Cl)cn1` [Example 10, 5-Chloro-4-(cyclopropylmethoxy)-N-[(1R)-2,2,2-trifluoro-1-pyridin-3-ylethyl]pyridine-2-carboxamide], a half-maximal response (EC50) required 1.56 µM and the “Percent relative efficacy … to +100%” value was −36.8%.
For the compound `CCOC(=O)C(CC)(CC)NC(=O)c1cc(OCC2(C)COC2)c(C2CC2)cn1` [Example 19, Ethyl 2-[[5-cyclopropyl-4-[(3-methyloxetan-3-yl)methoxy]pyridine-2-carbonyl]amino]-2-ethylbutanoate], the EC50 was determined as 0.148 µM and the “Percent relative efficacy … to +100%” value stood at 13%.
